Laboratory results taken from patent US10562861B2, “Carboxylic acid compounds” (Sumitomo Dainippon Pharma Co., Ltd., priority 2012, dated 2020).

What was measured:
Renca mouse tumour cells = assay: Tumour growth studies in Renca, a murine syngeneic renal carcinoma tumour model; format: in vivo; conditions: Balb/C mice, Renca s.c., vs 0.5% methylcellulose
Description: Experiments were conducted on female mice (Balb/C genotype, at least 5 weeks old). Renca mouse tumour cells (Cancer Chemother Pharmacol. 1995; 36 (1): 7-12) were kindly provided by Dr. T. Fujioka at Department of Urology, Iwate Medical University School of Medicine. Renca mouse tumour cells (5×10^4) were implanted subcutaneously in the flank of mice on day 0. Mice were treated with either drug vehicle (0.5% methylcellulose), the compound of Example 3 (0.3 mg/kg once a week) or the compound of Example 4 (3 mg/kg once a week) administered orally (p. o.) on days 1, 8, and 15. Tumour volumes were assessed at least twice weekly by bilateral vernier caliper measurements.
Tumour growth inhibition from the start of treatment was assessed by comparison of the differences in tumour growth rate between control and the compound of Example 3 treated groups, as shown in FIG. 9.
Tumour growth inhibition from the start of treatment was assessed by comparison of the differences in tumour growth rate between control and the compound of the Example 4 treated groups, as shown in FIG. 10.

CT26 mouse tumour cells = assay: Survival studies in CT26, a murine syngeneic colon carcinoma tumour model; format: in vivo; conditions: Balb/C mice, CT26 s.c., vs control or RT
Description: Experiments were conducted on female mice (Balb/C genotype, at least 5 weeks old). CT26 mouse tumour cells (CRL-2638) were purchased from ATCC. CT26 mouse tumour cells (1×10^6) were implanted subcutaneously in the flank of mice on day 0. Mice in radiotherapy alone (RT) group and combination group were anesthetized and received radiation therapy (2 Gy) at days 7, 8, 9, 10, and 11. Mice in combination group were also treated with a compound of Example 3 (30 mg/kg once a week) administered orally (p.o.) or Example 4 (5 mg/kg once a week) administered intravenously (i. v.) on days 7, 14, 22, and 27. Tumour volumes were assessed at least twice weekly by bilateral vernier caliper measurements. Survival period was determined by the time taken for tumours to reach 4 times the volume at the time of treatment.

SMILES: CCC[C@@H](CCO)Nc1nc(N)nc(C)c1Cc1ccc(CN(CC(=O)O)CC(F)F)cc1OC [Example 3, (S)-2-((4-((2-amino-4-(1-hydroxyhexan-3-ylamino)-6-methylpyrimidin-5-yl)methyl)-3-methoxybenzyl)(2,2-difluoroethyl)amino)acetic acid]
- Tumour growth inhibition (Renca mouse tumour cells; 0.3 mg/kg once a week p.o. on days 1, 8, 15, FIG. 9): inhibited tumour growth
- Survival period (time for tumours to reach 4 times the volume at treatment) (CT26 mouse tumour cells; RT 2 Gy days 7-11 plus 30 mg/kg once a week p.o., FIG. 12): survived significantly longer

SMILES: CCC[C@@H](CCO)Nc1nc(N)nc(C)c1Cc1ccc(CN(CC(=O)O)CC(F)(F)F)cc1OC [Example 4, (S)-2-((4-((2-amino-4-(1-hydroxyhexan-3-ylamino)-6-methylpyrimidin-5-yl)methyl)-3-methoxybenzyl)(2,2,2-trifluoroethyl)amino)acetic acid]
- Tumour growth inhibition (Renca mouse tumour cells; 3 mg/kg once a week p.o. on days 1, 8, 15, FIG. 10): inhibited tumour growth
- Survival period (time for tumours to reach 4 times the volume at treatment) (CT26 mouse tumour cells; RT 2 Gy days 7-11 plus 5 mg/kg once a week i.v., FIG. 13): survived significantly longer
